The target of assay [1] is T1, COX-1 (Sus scrofa, UniProt A0A287ANF9).
T1 construct: A platelet suspension obtained from pig's blood is preincubated with the test substance; endogenous in cells; host or cells: platelets from pig's blood
The experiment in a line: In-vitro test for COX-1 inhibition: fluorimetric quantification of malonaldehyde (MDA) in A23187-activated pig platelet suspension. It counts as cell-based. To be noted: for inhibition of COX-1 (in words): comparison of both isoenzymes. Here is the method: In-vitro Test Procedure for the Determination of COX-1 Inhibition
The inhibition of the cyclooxygenase pathway is carried out by fluorimetric quantification of malonaldehyde (MA). This condenses in the acidic medium with twice the molar amount of thiobarbituric acid to give a red pigment dye, which has a fluorescence at λExcitation: 533 nm, λEmission: 550 nm.
A platelet suspension obtained from pig's blood is preincubated with the test substance for 10 min at 37° C. The concentration of the suspension should be 8×10^8 cells/ml. The arachidonic acid cascade is then activated by addition of the antibiotic calcium ionophore A23187 ([…]). After a further 10 min at 37° C., the reaction is stopped using a trichloroacetic acid solution. The samples are centrifuged and the supernatant is incubated with thiobarbituric acid for 30 min at 70° C. After cooling (30 min at room temperature), the samples are measured fluorimetrically at 533/550 nm and the IC50 values of the test compounds are determined therefrom by means of a calibration curve.

For assay [2], the target named is T2, COX-2 (Homo sapiens, UniProt P35354).
T2 construct: endogenous in cells; host or cells: LPS-stimulated human monocytes (Ficoll extraction)
T2 sequence (P35354 18-604): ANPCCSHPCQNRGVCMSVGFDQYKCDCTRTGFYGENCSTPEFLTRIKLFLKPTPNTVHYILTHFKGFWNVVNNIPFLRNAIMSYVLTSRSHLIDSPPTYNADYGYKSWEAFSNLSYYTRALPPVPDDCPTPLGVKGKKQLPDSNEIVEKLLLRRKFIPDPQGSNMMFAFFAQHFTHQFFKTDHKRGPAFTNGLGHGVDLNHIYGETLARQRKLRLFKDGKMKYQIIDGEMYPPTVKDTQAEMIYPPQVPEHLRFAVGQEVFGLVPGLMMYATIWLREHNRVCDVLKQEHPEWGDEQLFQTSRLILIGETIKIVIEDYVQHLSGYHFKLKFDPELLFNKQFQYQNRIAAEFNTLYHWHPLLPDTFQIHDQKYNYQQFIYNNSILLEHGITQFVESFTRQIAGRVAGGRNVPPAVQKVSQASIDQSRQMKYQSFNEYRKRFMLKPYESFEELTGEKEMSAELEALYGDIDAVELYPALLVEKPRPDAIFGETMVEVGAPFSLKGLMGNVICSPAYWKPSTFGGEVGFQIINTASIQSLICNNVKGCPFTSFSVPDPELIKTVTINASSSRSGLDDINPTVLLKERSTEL
The experiment in a line: In-vitro test for COX-2 inhibition: PGE2 ELISA in LPS-stimulated human monocytes. It counts as cell-based. Conditions: for IC50: Table 18, LPS-stimulated human monocytes, PGE2; for inhibition of COX-2 (in words): comparison of both isoenzymes. As to the method:
In-vitro Test Procedure for the Determination of COX-2 Inhibition
The procedure is carried out on LPS-stimulated human monocytes which have been obtained by Ficoll extraction. The measurement variable used is the PGE2 formed, which is determined by means of ELISA.
(In general: An ELISA detects its analyte on a solid surface through an enzyme-linked reagent.)

Setting [3] is: Table 8, arylsulfonamides, pig platelets, read-out: MDA pIC50 (converted).
Where [4] appears, read: read-out: COX-2 inhibition pIC50 (converted).
Where [5] appears, read: tables 1 to 17, read-out: IC50 values (inhibition of cyclooxygenase-1).
Where [6] appears, read: Table 9, alkylamides, pig platelets, read-out: MDA pIC50 (converted).
[7] abbreviates: read-out: COX-2 inhibition IC50.
Setting [8] is: Table 6, N1-acetic acid derivatives, pig platelets, read-out: MDA IC50.
Where [9] appears, read: Table 2, sulfanylacetamides, pig platelets, read-out: MDA pIC50 (converted).
Where [10] appears, read: Table 14, sulfones and their sulfide analogs, pig platelets, read-out: MDA pIC50 (converted).

Like-named read-outs stand apart in the source and are kept apart here.

T1 sequence (A0A287ANF9 25-600): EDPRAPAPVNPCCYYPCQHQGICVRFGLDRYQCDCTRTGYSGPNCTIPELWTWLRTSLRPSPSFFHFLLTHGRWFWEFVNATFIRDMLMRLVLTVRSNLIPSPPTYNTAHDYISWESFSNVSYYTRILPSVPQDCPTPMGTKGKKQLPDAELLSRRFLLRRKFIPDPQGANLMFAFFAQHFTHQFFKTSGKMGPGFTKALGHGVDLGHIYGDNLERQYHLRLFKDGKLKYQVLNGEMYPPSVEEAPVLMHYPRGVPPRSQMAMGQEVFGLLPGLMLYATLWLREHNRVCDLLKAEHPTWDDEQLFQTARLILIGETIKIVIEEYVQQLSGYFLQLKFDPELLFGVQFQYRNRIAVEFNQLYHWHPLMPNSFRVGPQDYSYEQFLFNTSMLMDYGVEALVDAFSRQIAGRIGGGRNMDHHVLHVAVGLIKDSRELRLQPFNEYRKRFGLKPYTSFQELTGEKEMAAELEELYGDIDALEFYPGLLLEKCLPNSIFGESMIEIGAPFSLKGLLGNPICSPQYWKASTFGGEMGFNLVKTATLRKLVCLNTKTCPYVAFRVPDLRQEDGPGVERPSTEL

Take `COc1ccc(-c2nc(SCCNS(=O)(=O)c3cc(C(F)(F)F)cc(C(F)(F)F)c3)[nH]c2-c2ccc(OC)cc2)cc1` [Compound T22, N^1-{2-[4,5-Bis(4-methoxyphenyl)-1H-imidazol-2-ylsufanyl]ethyl}-3,5-bis-(trifluoromethyl)benzenesulfonamide]: the IC50 was 407 nM in assay [1] (setting [3]) and 1510 nM in assay [2] (setting [4]). Take `COc1ccc(-c2nc(SCCNC(=O)N(C)C)[nH]c2-c2ccc(OC)cc2)cc1` [Compound T57, N^1-{2-[4,5-Bis(4-methoxyphenyl)-1H-imidazol-2-ylsulfanyl]ethyl}-N′,N′-dimethylurea]: the IC50 in assay [1] (Table 13, urea derivatives, pig platelets, read-out: MDA IC50) is 78 nM; in assay [2] (setting [4]), 209 nM. Consider `COc1ccc(-c2nc(SCC(=O)c3ccccc3)[nH]c2-c2ccc(OC)cc2)cc1` [Compound T11, 2-[4,5-Bis(4-methoxyphenyl)-1H-imidazol-2-ylsulfanyl]-1-phenylethan-1-one], for which the IC50 in assay [1] (Table 4, aryl ketones, pig platelets, read-out: MDA IC50) was 9.5 nM; in assay [1] (setting [5]), about 1 nM; in assay [2] (setting [4]), 257 nM. On to `CC(=O)NCCSc1nc(-c2ccc(Cl)cc2)c(-c2ccc(Cl)cc2)[nH]1` [Compound T84, N^1-{2-[4,5-Bis(4-chlorophenyl)-1H-imidazol-2-ylsufanyl]ethyl}acetamide], for which the IC50 in assay [1] (setting [6]) is 1100 nM; in assay [2] (setting [4]), 2690 nM.

On to `COc1ccc(-c2[nH]c(SCCNS(=O)(=O)c3ccc(Cl)cc3)nc2-c2ccc(Cl)cc2)cc1` [Compound T111, N^1-{2-[4-(4-Chlorophenyl)-5-(4-methoxyphenv)-1H-imidazol-2-yl-sufanyl]ethyl}-4-chlorobenzenesulfonamide], for which the figures for the IC50 in assay [1] (setting [3]) and in assay [2] (setting [7]) were 129 nM and 800 nM, respectively. As to `COc1ccc(-c2c(-c3ccc(Cl)cc3)nc(SCc3ccccn3)n2CC(=O)O)cc1` [Compound T109, 2-[4-(4-Chlorophenyl)-5-(4-methoxyphenyl)-2-(2-pyridylmethylsulfanyl) -1H-imidazol-1-yl]acetic acid], the IC50 was 490 nM in assay [1] (setting [8]) and 1000 nM in assay [2] (setting [4]). The “inhibition of COX-1 (in words)” value in assay [1] is listed as “medium-strong inhibition”. For the same compound, in assay [2], the “inhibition of COX-2 (in words)” value was “medium-strong inhibition”. In the case of `COc1ccc(-c2nc(SCCN(C)C(=O)c3ccccc3)[nH]c2-c2ccc(OC)cc2)cc1` [Compound T29, N^1-{2-[4,5-Bis(4-methoxyphenyl)-1H-imidazol-2ylsulfanyl]ethyl}-N^1-1-methylbenzamide], the IC50 is 20.9 nM in assay [1] (Table 17, methyl derivatives, pig platelets, read-out: MDA pIC50 (converted)) and 10 nM in assay [2] (setting [4]). For the same compound, the “inhibition of COX-1 (in words)” value in assay [1] was “approximately equally high potency”. The “inhibition of COX-2 (in words)” value in assay [2] is “approximately equally high potency”. In the case of `COc1ccc(-c2nc(SCC(=O)N(C)C)[nH]c2-c2ccc(OC)cc2)cc1` [Compound T6, N^1N^1-Dimethyl-2-[4,5-bis(4-methoxyphenyl)-1H-imidazol-2-ylsulfanyl]-acetamide], the IC50 in assay [1] (setting [9]) was 10 nM; in assay [1] (Table 15, N,N-acetamides, pig platelets, read-out: MDA pIC50 (converted)), 10 nM; in assay [2] (setting [4]), 2290 nM. Turning to `COc1ccc(-c2nc(SCCNS(=O)(=O)c3ccc(Cl)cc3)[nH]c2-c2ccc(OC)cc2)cc1` [Compound T18, N-hu 1-{2-[4,5-Bis(4-methoxyphenyl)-1H-imidazol-2-ylsufanyl]ethyl}-4-chlorobenzenesulfonamide], the figures for the IC50 in assay [1] (setting [3]) and in assay [2] (setting [4]) were 282 nM and 3020 nM, respectively.

On to `COc1ccc(-c2nc(SC(C(C)=O)C(=O)N(C)C)[nH]c2-c2ccc(OC)cc2)cc1` (centres unmarked) [Compound T7, N^1,N^1-Dimethyl-2-[4,5-bis(4-methoxyphenyl)-1H-imidazol-2-ylsufanyl]-3-oxobutanamide], for which the IC50 in assay [1] (setting [9]) was 33.1 nM; in assay [2] (setting [7]), 500 nM. On to `COc1ccc(-c2nc(SCc3ccccn3)[nH]c2-c2ccc(OC)cc2)cc1` [Compound T69, 2-[4,5-Bis(4-methoxyphenyl)-1H-imidazol-2-ylsulfanylmethyl]pyridine], for which the IC50 in assay [1] (Table 5, heteroarylmethyl sulfides, pig platelets, read-out: MDA pIC50 (converted)) is 100 nM; in assay [1] (setting [10]) it was 100 nM; in assay [2] (setting [4]) it was 240 nM. As to `COc1ccc(-c2nc(SCCNS(=O)(=O)c3ccc(NC(C)=O)cc3)[nH]c2-c2ccc(OC)cc2)cc1` [Compound T27, N^1-(4-{2-[4,5-Bis(4-methoxyphenyl)-1H-imidazol-2-ylsufanyl]ethyl-sulfamoyl}phenyl)acetamide], the IC50 in assay [1] (setting [3]) was 18.2 nM; in assay [2] (setting [4]), 1200 nM.

Regarding `CCN(CC)C(=O)Sc1nc(-c2ccc(OC)cc2)c(-c2ccc(OC)cc2)[nH]1` [Compound T2, [4,5-Bis(4-methoxyphenyl)-1H-imidazol-2-yl]-N,N-diethylcarbamic acid thioester], the IC50 in assay [1] (Table 1, carbamic acid thioesters, pig platelets, read-out: MDA IC50) is 4.8 nM; in assay [1] (setting [5]), about 1 nM; in assay [2] (setting [4]) it was 2400 nM. As to `CCN(CC)C(=O)Sc1nc(-c2ccc(Cl)cc2)c(-c2ccccc2)[nH]1` [Compound T104, [4-(4-Chlorophenyl)-5-phenyl-1H-imidazol-2-yl]-N,N-diethylcarbamic acid thioester], the IC50 in assay [1] (Table 1, carbamic acid thioesters, pig platelets, read-out: MDA pIC50 (converted)) is 4170 nM. As to `CCOC(=O)CSc1nc(-c2ccc(OC)cc2)c(-c2ccc(OC)cc2)[nH]1` [Compound T79, Ethyl 2-[4,5-bis(4-methoxyphenyl)-1H-imidazol-2-ylsufanyl]acetate], the IC50 in assay [1] (setting [10]) was 12 nM.

As for `COc1ccc(-c2nc(SCc3ccncc3)n(CC(=O)O)c2-c2ccc(OC)cc2)cc1` [Compound T77, 2-[4,5-Bis(4-methoxyphenyl)-2-(4-pyridylmethylsulfanyl)-1H-imidazol-1-yl]-acetic acid], the IC50 in assay [1] (setting [8]) stood at 720 nM.

For the compound `COc1ccc(-c2nc(SCCNS(=O)(=O)c3ccccc3)[nH]c2-c2ccc(OC)cc2)cc1` [Compound T17, N^1-{2-[4,5-Bis(4-methoxyphenyl)-1H-imidazol-2-ylsufanyl]ethyl}benzene-sulfonamide], the IC50 in assay [1] (Table 8, arylsulfonamides, pig platelets, read-out: MDA IC50) was 50 nM. Consider `COc1ccc(-c2nc(SCCN(C)S(=O)(=O)c3ccc(Cl)cc3)n(C)c2-c2ccc(OC)cc2)cc1` [Compound T19, N^1-{2-[4,5-Bis(4-methoxyphenyl)-1-methyl-1H-imidazol-2-ylsufanyl]-ethyl}-N-1-methyl-4-chlorobenzenesulfonamide], for which the IC50 in assay [1] (Table 16, dimethyl compounds, pig platelets, read-out: MDA pIC50 (converted)) was 69.2 nM. As for `COc1ccc(-c2nc(SCC(N)=O)[nH]c2-c2ccc(OC)cc2)cc1` [Compound T5, 2-[4,5-bis(4-methoxyphenyl)-1H-imidazol-2-ylsulfanyl]-acetamide], in assay [1] (Table 2, sulfanylacetamides, pig platelets, read-out: MDA IC50), the IC50 came to 450 nM. Regarding `O=C(NCCSc1nc(-c2ccccc2)c(-c2ccccc2)[nH]1)c1ccccc1` [Compound T94], in assay [1] (Table 7, arylamides, pig platelets, read-out: MDA pIC50 (converted)), the IC50 is 2090 nM. With `COc1ccc(-c2nc(S(=O)(=O)Cc3ccccn3)[nH]c2-c2ccc(OC)cc2)cc1` [Compound T74, 2-[4,5-Bis(4-methoxyphenyl)-1H-imidazol-2-ylsulfonylmethyl]pyridine], the IC50 in assay [1] (Table 14, sulfones and their sulfide analogs, pig platelets, read-out: MDA IC50) stood at 81 nM.

Turning to `COc1ccc(-c2nc(SCCNC(=O)C=Cc3ccccc3)[nH]c2-c2ccc(OC)cc2)cc1` [Compound T61, N^1-{2-[4,5-Bis(4-methoxyphenyl)-1H-imidazol-2-ylsulfanyl]ethyl}-3-phenylprop-2-enamide], the IC50 in assay [1] (setting [6]) was 182 nM. In the case of `COc1ccc(-c2nc(SCCNS(=O)(=O)Cc3ccccc3)[nH]c2-c2ccc(OC)cc2)cc1` [Compound T66, N^1-{2-[4,5-Bis(4-methoxyphenyl)-1H-imidazol-2-ylsulfanyl]ethyl}-phenylmethanesulfonamide], the IC50 in assay [1] (Table 10, alkylsulfonamides, pig platelets, read-out: MDA pIC50 (converted)) was 100 nM.

The values above are taken from US7223781B2 (Beiersdorf AG, priority 2001, dated 2007).
